Data reported in ChEMBL document CHEMBL4308908, “Lamellarin-inspired potent topoisomerase I inhibitors with the unprecedented benzo[g][1]benzopyrano[4,3-b]indol-6(13H)-one scaffold” (Bioorg Med Chem, 2019).

Legend:
Assay type in all cases: functional
[1] = Antiproliferative activity against human HBC4 cells after 48 hrs by SRB assay; details: HBC4, 48 h
HCT-15 = experiment: Antiproliferative activity against human HCT15 cells after 48 hrs by SRB assay; details: HCT-15, 48 h
NCI-H226 = experiment: Antiproliferative activity against human NCI-H226 cells after 48 hrs by SRB assay; details: NCI-H226, 48 h
NCI-H522 = experiment: Antiproliferative activity against human NCI-H522 cells after 48 hrs by SRB assay; details: NCI-H522, 48 h
A549 = experiment: Antiproliferative activity against human A549 cells after 48 hrs by SRB assay; details: A549, 48 h
DMS-273 = experiment: Antiproliferative activity against human DMS273 cells after 48 hrs by SRB assay; details: DMS-273, 48 h
OVCAR-4 = experiment: Antiproliferative activity against human OVCAR4 cells after 48 hrs by SRB assay; details: OVCAR-4, 48 h
MKN-7 = experiment: Antiproliferative activity against human MKN7 cells after 48 hrs by SRB assay; details: MKN-7, 48 h
MKN-28 = experiment: Antiproliferative activity against human MKN28 cells after 48 hrs by SRB assay; details: MKN-28, 48 h
MKN-74 = experiment: Antiproliferative activity against human MKN74 cells after 48 hrs by SRB assay; details: MKN-74, 48 h

GI50 (HCT-15): 58.9 nM | GI50 (NCI-H226): 89.1 nM | GI50 (NCI-H522; read-out: GI50): 3.4 nM | GI50 (NCI-H522; read-out: pGI50 (converted)): 3.47 nM | GI50 (A549): 52.5 nM | GI50 (OVCAR-4): 36.3 nM | GI50 (MKN-7): 52.5 nM | GI50 (MKN-28; read-out: GI50): 41 nM | GI50 (MKN-28; read-out: pGI50 (converted)): 40.7 nM | GI50 (MKN-74): 75.9 nM
Structure (SMILES): COc1cc2c(ccc3c4c(=O)oc5cc(OC(=O)[C@@H](N)C(C)C)c(OC)cc5c4n(C)c23)cc1OC(=O)[C@@H](N)C(C)C.O=C(O)C(F)(F)F.O=C(O)C(F)(F)F
GI50 [1]: 10 nM | GI50 (DMS-273): 4.27 nM
